Assay results published in the NIST ThermoML archive (doi:10.1021/je049572f).
Several values for one entry are separate records, joined by “and”; a condition that tells them apart may be missing. Identical values can stand only once. ± gives the expanded uncertainty stated by the source.

Key:
[1] = 101.33 kPa, Liquid
[2] = xn = mol fraction of the nth substance listed; conditions: 101.33 kPa, Liquid

CN1CCCC1=O [N-methylpyrrolidone]
[1]
Conditions | mass density [kg/m3] | viscosity [mPa·s]
303.15 K | 1023.47 ± 3.2 | 1.554 ± 0.053
313.15 K | 1014.55 ± 3.1 | 1.332 ± 0.046
323.15 K | 1005.66 ± 3 | 1.16 ± 0.04
333.15 K | 996.71 ± 2.9 | 1.022 ± 0.036
343.15 K | 987.75 ± 3 | 0.908 ± 0.032
353.15 K | 978.76 ± 3 | 0.813 ± 0.029

CN1CCCC1=O [N-methylpyrrolidone] + CCc1ccccc1
[2], x2 = 0
Conditions | mass density [kg/m3] | viscosity [mPa·s]
303.15 K | 1023.47 ± 3.2 | 1.554 ± 0.053
313.15 K | 1014.55 ± 3.1 | 1.332 ± 0.046
323.15 K | 1005.66 ± 3 | 1.16 ± 0.04
333.15 K | 996.71 ± 2.9 | 1.022 ± 0.036
343.15 K | 987.75 ± 3 | 0.908 ± 0.032
353.15 K | 978.76 ± 3 | 0.813 ± 0.029

CCc1ccccc1 [ethylbenzene]
[1]
Conditions | mass density | viscosity [mPa·s]
303.15 K | 859.95 ± 3.6 kg/m3 | 0.598 ± 0.016
313.15 K | 851.14 ± 3.7 kg/m3 | 0.537 ± 0.015
323.15 K | 842.3 ± 3.8 kg/m3 and 842.27 ± 3.8 kg/m3 | 0.483 ± 0.014
333.15 K | 833.34 ± 4 kg/m3 | 0.437 ± 0.013
343.15 K | 824.26 ± 4.1 kg/m3 | 0.397 ± 0.012
353.15 K | 815.18 ± 4.3 kg/m3 | 0.366 ± 0.012

CCc1ccccc1 [ethylbenzene] + O=S1(=O)CCCC1
[2], x1 = 1
Conditions | mass density [kg/m3] | viscosity [mPa·s]
303.15 K | 859.95 ± 3.6 | 0.598 ± 0.016
313.15 K | 851.14 ± 3.7 | 0.537 ± 0.015
323.15 K | 842.27 ± 3.8 | 0.483 ± 0.014
333.15 K | 833.34 ± 4 | 0.437 ± 0.013
343.15 K | 824.26 ± 4.1 | 0.397 ± 0.012
353.15 K | 815.18 ± 4.3 | 0.366 ± 0.012

CCCCCCCC [octane]
[1]
Conditions | mass density [kg/m3] | viscosity [mPa·s]
293.15 K | 703.88 ± 3 | 0.534 ± 0.015
298.15 K | 699.83 ± 3.1 | 0.501 ± 0.014
303.15 K | 695.79 ± 3.1 | 0.472 ± 0.014
313.15 K | 687.59 ± 3.2 | 0.422 ± 0.013
323.15 K | 679.34 ± 3.2 | 0.38 ± 0.012
333.15 K | 670.98 ± 3.3 | 0.343 ± 0.011
343.15 K | 662.59 ± 3.4 | 0.314 ± 0.011
353.15 K | 654.05 ± 3.5 | 0.287 ± 0.01
363.15 K | 645.68 ± 3.5 | 0.261 ± 0.01

CCCCCCCC [octane] + C=Cc1ccccc1
[2], x2 = 0
Conditions | mass density [kg/m3] | viscosity [mPa·s]
293.15 K | 703.88 ± 3 | 0.534 ± 0.015
298.15 K | 699.83 ± 3.1 | 0.501 ± 0.014
303.15 K | 695.79 ± 3.1 | 0.472 ± 0.014
313.15 K | 687.59 ± 3.2 | 0.422 ± 0.013
323.15 K | 679.34 ± 3.2 | 0.38 ± 0.012
333.15 K | 670.98 ± 3.3 | 0.343 ± 0.011
343.15 K | 662.59 ± 3.4 | 0.314 ± 0.011
353.15 K | 654.05 ± 3.5 | 0.287 ± 0.01
363.15 K | 645.68 ± 3.5 | 0.261 ± 0.01

C=Cc1ccccc1 [styrene]
[1]
Conditions | mass density [kg/m3] | viscosity [mPa·s]
293.15 K | 906.29 ± 1.4 | 0.749 ± 0.019
298.15 K | 901.86 ± 1.4 | 0.699 ± 0.018
303.15 K | 897.45 ± 1.5 | 0.654 ± 0.017
313.15 K | 888.53 ± 1.6 | 0.577 ± 0.016
323.15 K | 879.62 ± 1.6 | 0.513 ± 0.014
333.15 K | 870.64 ± 1.7 | 0.462 ± 0.013
343.15 K | 861.72 ± 1.8 | 0.419 ± 0.013
353.15 K | 852.68 ± 1.9 | 0.381 ± 0.012
363.15 K | 843.99 ± 1.9 | 0.349 ± 0.011

O=S1(=O)CCCC1 [sulfolane]
[1]
Conditions | mass density [kg/m3] | viscosity [mPa·s]
303.15 K | 1260.8 ± 6.4 | 10.07 ± 0.32
313.15 K | 1251.9 ± 6.3 | 7.808 ± 0.25
323.15 K | 1243.36 ± 6.2 | 6.194 ± 0.2
333.15 K | 1234.62 ± 6 | 5.009 ± 0.17
343.15 K | 1225.92 ± 5.9 | 4.126 ± 0.14
353.15 K | 1216.8 ± 5.8 | 3.44 ± 0.12
